One series addresses T1, Gbst-AcK (Geobacillus stearothermophilus, UniProt A0ACH1E729).
T1 construct: gene ackA; codon-optimised gene in pET21a (NdeI/XhoI, no stop codon; C-terminal vector His tag), E. coli BL21(DE3), Ni column
T1 sequence (A0ACH1E729 1-396): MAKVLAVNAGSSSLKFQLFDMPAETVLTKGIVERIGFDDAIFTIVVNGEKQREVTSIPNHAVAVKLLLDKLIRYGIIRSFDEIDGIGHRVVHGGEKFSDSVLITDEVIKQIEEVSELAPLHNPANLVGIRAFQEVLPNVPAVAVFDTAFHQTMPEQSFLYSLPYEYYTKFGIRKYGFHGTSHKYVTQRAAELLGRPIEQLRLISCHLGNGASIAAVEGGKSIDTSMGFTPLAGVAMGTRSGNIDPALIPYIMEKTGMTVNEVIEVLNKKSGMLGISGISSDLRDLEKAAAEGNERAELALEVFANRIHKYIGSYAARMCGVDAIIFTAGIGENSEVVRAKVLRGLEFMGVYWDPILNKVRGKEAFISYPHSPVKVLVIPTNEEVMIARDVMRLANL
Put plainly: HPLC of ATP formation. The settings on record: […] ADP, […] AcP, […] MgCl2, […] KPB pH […] °C. The format is biochemical.

The subject of series [1] is T2, NC(=O)c1ccc[n+]([C@@H]2O[C@H](CO)[C@@H](O)[C@H]2O)c1.
T2 construct: codon-optimised gene in pET21a (NdeI/XhoI, no stop codon; C-terminal vector His tag), E. coli BL21(DE3), Ni column; about 27 kDa
Kind of series: purified protein. The format is biochemical, Kluyveromyces marxianus. The settings on record: apparent, 0.5 mM ATP, 12 mM MgCl2, 50 mM Tris-HCl pH 7.5, 50 mM NaCl, 50 mM KCl, 0.01% BSA, 30 °C.

Series [2] relates to T3, Nc1ncnc2c1ncn2[C@@H]1O[C@H](COP(=O)(O)OP(=O)(O)OP(=O)(O)O)[C@@H](O)[C@H]1O.
T3 construct: codon-optimised gene in pET21a (NdeI/XhoI, no stop codon; C-terminal vector His tag), E. coli BL21(DE3), Ni column; about 27 kDa
Put plainly: purified protein. It is filed as biochemical, Kluyveromyces marxianus. The following applies: apparent, 0.5 mM NR, 12 mM MgCl2, 50 mM Tris-HCl pH 7.5, 50 mM NaCl, 50 mM KCl, 0.01% BSA, 30 °C.

For the molecule `Nc1ncnc2c1ncn2[C@@H]1O[C@H](COP(=O)(O)OP(=O)(O)O)[C@@H](O)[C@H]1O` [ADP], the “HPLC of ATP formation” value on Gbst-AcK is reported as “assayed as the generation of ATP from ADP with a sufficient amount of AcP”.
As to `CC(=O)OP(=O)(O)O` [AcP], at Gbst-AcK, the “HPLC of ATP formation” value is “assayed as the generation of ATP from ADP with a sufficient amount of AcP”.
The Km is the concentration of substrate that gives half-maximal velocity. As for “Klm-NRK (Kluyveromyces marxianus DMKU3-1042)”, the values for the Km in series [1] and in series [2] were 45 ± 11 µM and 70 ± 6 µM, respectively.

(Values after PMC10992250, “Enzymatic synthesis of high-titer nicotinamide mononucleotide with a new nicotinamide riboside kinase and an efficient ATP regeneration system” (Bioresources and Bioprocessing, 2022).)
